Assays:
SARS-CoV-2 [1] = assay type: cell-based; details: Calu-3 cells, treated 1 h post-infection, up to 10 µM, 72 h
[2] = Mouse infection model, body weight changes; assay type: in vivo, BALB/C mice; details: infected mice, 5 mg/kg intranasally, four-day observation
SARS-CoV-2 [3] = details: Calu-3 cells, 5 µM, pre-treated 2 h, MOI 0.1, 72 h
Calu-3 cells = details: uninfected Calu-3 cells, concentrations up to 10 µM, normalized to DMSO

| SMILES | viral progeny / inhibitory effect (plaque assay, Western blotting) (SARS-CoV-2 [1]) | weight changes versus control group [2] | antiviral activity (intracellular virus, immunofluorescence staining) (SARS-CoV-2 [3]) | cellular toxicity (Calu-3 cells) |
| --- | --- | --- | --- | --- |
| CC(C)C(=O)OC[C@H]1O[C@@H](n2ccc(NO)nc2=O)[C@H](O)[C@@H]1O [molnupiravir] | moderate inhibitory effects |  |  |  |
| O=P(O)(O)OC[C@H]1O[C@@H](n2cnc3c(S)ncnc32)[C@H](O)[C@@H]1O [thioinosinic acid] | notable antiviral efficacy | no significant difference in weight changes |  |  |
| Cn1cnc([N+](=O)[O-])c1Sc1ncnc2nc[nH]c12 [azathioprine] | significant reduction in viral progeny | no significant difference in weight changes | antiviral activity comparable to established nucleoside analog inhibitors | low cellular toxicity |

From paper PMC10740425, “How Deep Learning in Antiviral Molecular Profiling Identified Anti-SARS-CoV-2 Inhibitors” (Biomedicines, 2023)
